Like-named read-outs stand apart in the source and are kept apart here.
Assays:
[1] = reference substances used to obtain the regression equation; cited from earlier work
[2] = LogP Assay (HPLC retention, pH 7.4); conditions: X-Bridge C18 column (retention-time method)
[3] = Metabolic stability in human liver microsomes; conditions: for Remaining (T60): 60 min; for Remaining (NCF60): 1 h incubation, human liver microsomes, no co-factor (no NADPH); for CLint scaled at 1 μM / half-life at 1 μM / microsomal CLint at 1 μM / remaining at 5 min, 1 μM / remaining at 0.5 h, 1 μM / remaining at 0.75 h, 1 μM: human
[4] = human, microsomes
physchem = conditions: pH 7.4
in vitro = conditions: human, microsomes
[5] = human liver microsomes with NADPH

Structure (SMILES)	Log P of reference substance [1]	Remaining (T60) [3, 5]	Remaining (NCF60) [3]	CLint scaled at 1 μM ([3]; liver microsomes)	half-life at 1 μM ([3]; liver microsomes)	remaining at 5 min, 1 μM ([3]; liver microsomes)	remaining at 0.5 h, 1 μM ([3]; liver microsomes)	remaining at 0.75 h, 1 μM ([3]; liver microsomes)	further results
CC(=O)c1ccncc1 [4-Acetylpyridine]	0.5	–	–	–	–	–	–	–	–
COc1ccc(S(=O)(=O)N2CCN(C(=O)OCc3ccccc3)CC2C(=O)NO)cc1 (stereo not shown) [DB04232]	–	30.6%	110.2%	34.6 mL/min/kg	36 min	82%	59.3%	38.5%	chromatographic logP [2]: 1.43; microsomal CLint at 1 μM ([3]; liver microsomes): 38.5 µL/min/mg
O=C(O)Cc1ccccc1Nc1c(Cl)cccc1Cl [Diclofenac]	–	0.1%	96.1%	209 mL/min/kg	6 min	49.4%	2.6%	0.5%	%Remaining ([3]; 15 min, human liver microsomes with NADPH): 15.6%; CLint(mic) (microsome intrinsic clearance) ([3]; human liver microsomes 0.5 mg/mL, 1 μM compound, NADPH): 232.5 µL/min/mg
CCc1ccccc1 [Ethylbenzene]	3.2	–	–	–	–	–	–	–	–
COc1ccc(S(=O)(=O)N2C3CN(C(=O)OCc4ccccc4)CC2(C(=O)NO)C3)cc1 (stereo not shown) [compound 68]	–	–	–	–	–	–	–	–	metabolic stability compared with DB04232 ([4]; 1 μM): at least as metabolically stable as DB04232; Remaining (NCF60) ([4]; 1 h, 1 μM): 86.9%; Remaining (T60) ([4]; 1 h, 1 μM): 28.3%; chromatographic logP (physchem): 0.946; CLint scaled at 1 μM (in vitro): 34.3 mL/min/kg; half-life at 1 μM (in vitro): 36.3 min; remaining at 5 min, 1 μM (in vitro): 71.3%; remaining at 0.5 h, 1 μM (in vitro): 45.9%; remaining at 0.75 h, 1 μM (in vitro): 36.6%; microsomal CLint at 1 μM ([3]; microsomes): 38.1 µL/min/mg

Reference: publication PMC13171625, “Breaking the ‘rule-of-five’ to access bridged bicyclic heteroaromatic bioisosteres” (Nature Synthesis, 2026)
